The results in this text go back to ChEMBL document CHEMBL4706511, “Structure-based design, synthesis and bioactivity evaluation of macrocyclic inhibitors of mutant isocitrate dehydrogenase 2 (IDH2) displaying activity in acute myeloid leukemia cells” (Eur J Med Chem, 2020).

The target in data set [1] is Isocitrate dehydrogenase [NADP], mitochondrial (Homo sapiens, UniProt P48735, R172K). Briefly: Inhibition of IDH2 R172K mutant (unknown origin) assessed as reduction in NADPH consumption using alpha-ketoglutarate and NADPH as substrate preincubated with enzyme for 15 mins followed by substrate addition by fluorescence based assay.
Data set [2] addresses T1, Isocitrate dehydrogenase [NADP], mitochondrial (Homo sapiens, UniProt P48735).
T1 sequence (P48735 whole entry): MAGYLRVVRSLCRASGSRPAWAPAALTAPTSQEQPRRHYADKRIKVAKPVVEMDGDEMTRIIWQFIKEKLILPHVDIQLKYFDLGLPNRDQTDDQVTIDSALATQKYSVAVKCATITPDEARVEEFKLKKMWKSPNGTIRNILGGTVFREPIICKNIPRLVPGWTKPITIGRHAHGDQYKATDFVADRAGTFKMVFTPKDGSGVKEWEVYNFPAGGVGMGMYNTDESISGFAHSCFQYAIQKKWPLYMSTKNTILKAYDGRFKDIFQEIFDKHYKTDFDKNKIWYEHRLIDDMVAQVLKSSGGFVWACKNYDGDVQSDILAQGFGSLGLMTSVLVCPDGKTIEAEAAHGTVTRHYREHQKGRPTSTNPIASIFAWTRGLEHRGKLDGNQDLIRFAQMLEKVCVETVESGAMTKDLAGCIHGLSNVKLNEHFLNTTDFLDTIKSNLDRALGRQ
Briefly: Inhibition of wild type IDH2 (unknown origin) assessed as reduction in NADPH production using sodium(D)-isocitrate and NADP as substrate preincubated with enzyme for 15 mins followed by substrate addition by fluorescence based assay.

A short description of data set [3]: Metabolic stability in human liver microsomes assessed as parent compound remaining at 100 ug/ml measured after 45 mins in presence of NADPH by LC-MS analysis. Type of data set: ADME, Microsome. The following applies: at 100 µg/mL, read-out: Stabilty. A general note: Liver microsomes are vesicles of endoplasmic reticulum, rich in cytochrome P450 enzymes.
The nature of data set [4]: Metabolic stability in human liver microsomes assessed as parent compound remaining at 100 ug/ml measured after 15 mins in presence of NADPH by LC-MS analysis. The class given is ADME, Microsome. The settings on record: at 100 µg/mL, read-out: Stabilty.
Data set [5] is described as follows: Metabolic stability in human liver microsomes assessed as parent compound remaining at 100 ug/ml measured after 90 mins in presence of NADPH by LC-MS analysis. The following applies: at 100 µg/mL, read-out: Stabilty. The class given is ADME, Microsome.
The test system of data set [6] is T2, Isocitrate dehydrogenase [NADP], mitochondrial (Homo sapiens), P48735 [R140Q].
T2 sequence (whole entry): T1 sequence (P48735 whole entry) with R140Q
Briefly: Potency index, ratio of AG-221 IC50 to test compound IC50 for IDH2 R140Q mutant (unknown origin) assessed as reduction in NADPH consumption using alpha-ketoglutarate and NADPH as substrate preincubated with enzyme for 15 mins followed by substrate addition by fluorescence based assay.

Data set [7] has as its target Isocitrate dehydrogenase [NADP], mitochondrial (Homo sapiens, UniProt P48735, R140Q). Description: Inhibition of IDH2 R140Q mutant (unknown origin) assessed as reduction in NADPH consumption using alpha-ketoglutarate and NADPH as substrate preincubated with enzyme for 15 mins followed by substrate addition by fluorescence based assay.
Data set [8] can be described thus: Tmax in Sprague-Dawley rat at 10 mg/kg, po measured up to 24 hrs by LC-MS/MS analysis. The class given is ADME, organism-based. The settings on record: in vivo.
Data set [9] can be described thus: Half life in Sprague-Dawley rat at 10 mg/kg, po measured up to 24 hrs by LC-MS/MS analysis. The class given is ADME, organism-based. The following applies: in vivo.
Data set [10] can be described thus: AUC (0 to infinity) in Sprague-Dawley rat at 1 mg/kg, iv measured up to 24 hrs by LC-MS/MS analysis. The class given is ADME, organism-based. On the set-up: route intravenous, dose 1 mg/kg, time <=24. The following applies: in vivo.
Data set [11] can be described thus: AUC (0 to t) in Sprague-Dawley rat at 1 mg/kg, iv measured up to 24 hrs by LC-MS/MS analysis. Also on record: route intravenous, dose 1 mg/kg, time <=24. The class given is ADME, organism-based. The following applies: in vivo.
Data set [12] in a line: Cmax in Sprague-Dawley rat at 1 mg/kg, iv measured up to 24 hrs by LC-MS/MS analysis. Type of data set: ADME, organism-based. Also on record: route intravenous, dose 1 mg/kg, time <=24. The following applies: in vivo.
Data set [13] can be described thus: Half life in Sprague-Dawley rat at 1 mg/kg, iv measured up to 24 hrs by LC-MS/MS analysis. Type of data set: ADME, organism-based. The settings on record: in vivo.
Data set [14] is described as follows: Oral bioavailability Sprague-Dawley rat at 10 mg/kg measured up to 24 hrs by LC-MS/MS analysis. The class given is ADME, organism-based. The following applies: in vivo.
Data set [15] is described as follows: Cmax in Sprague-Dawley rat at 10 mg/kg, po measured up to 24 hrs by LC-MS/MS analysis. Type of data set: ADME, organism-based. On the set-up: route oral, dose 10 mg/kg, time <=24. The settings on record: in vivo.
Data set [16] can be described thus: MRT (0 to t) in Sprague-Dawley rat at 10 mg/kg, po measured upto 24 hrs by LC-MS/MS analysis. The settings on record: in vivo. The class given is ADME, organism-based.
Data set [17] in a line: MRT (0 to t) in Sprague-Dawley rat at 1 mg/kg, iv measured upto 24 hrs by LC-MS/MS analysis. Type of data set: ADME, organism-based. The settings on record: in vivo.
Data set [18] is described as follows: AUC (0 to infinity) in Sprague-Dawley rat at 10 mg/kg, po measured up to 24 hrs by LC-MS/MS analysis. The class given is ADME, organism-based. The following applies: in vivo. Also on record: route oral, dose 10 mg/kg, time <=24.
Data set [19] is described as follows: AUC (0 to t) in Sprague-Dawley rat at 10 mg/kg, po measured up to 24 hrs by LC-MS/MS analysis. The class given is ADME, organism-based. Also on record: route oral, dose 10 mg/kg, time <=24. The settings on record: in vivo.

Numbering of substitutions follows the chain as printed.

Sequence of Isocitrate dehydrogenase [NADP], mitochondrial (Homo sapiens, UniProt P48735, R140Q) (P48735 40-452 R140Q limits assumed): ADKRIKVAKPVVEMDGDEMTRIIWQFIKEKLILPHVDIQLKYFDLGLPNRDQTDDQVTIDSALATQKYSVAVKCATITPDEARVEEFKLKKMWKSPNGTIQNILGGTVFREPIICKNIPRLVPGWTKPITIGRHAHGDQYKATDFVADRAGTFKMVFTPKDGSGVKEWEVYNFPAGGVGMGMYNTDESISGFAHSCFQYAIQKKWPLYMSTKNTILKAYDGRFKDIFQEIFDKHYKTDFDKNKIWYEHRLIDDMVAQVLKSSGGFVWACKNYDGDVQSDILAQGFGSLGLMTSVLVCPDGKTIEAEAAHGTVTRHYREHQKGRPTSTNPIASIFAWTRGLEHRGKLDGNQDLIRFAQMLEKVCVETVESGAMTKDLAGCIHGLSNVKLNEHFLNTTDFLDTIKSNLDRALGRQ
Sequence of Isocitrate dehydrogenase [NADP], mitochondrial (Homo sapiens, UniProt P48735, R172K) (P48735 40-452 R172K limits assumed): as the sequence (P48735 40-452 R140Q limits assumed) above, with Q101R, R133K counted along it

Consider `FC(F)(F)c1cc2cc(c1)Nc1nc(nc(-c3cccc(C(F)(F)F)n3)n1)NCCC/C=C/C2`, for which the IC50 (usually the concentration at which inhibition is half-maximal) in [1] is 0.0174 µM; in data set [2], 14.1 µM; in [7], 0.0138 µM. Further, in data set [3], the remaining at 0.75 h, 100 ug/ml came to 91%. For the same compound, the remaining at 0.25 h, 100 ug/ml in data set [4] was above 99%. In addition, the remaining at 1.5 h, 100 ug/ml in data set [5] amounted to 90%. In data set [6], the Ratio IC50 stood at 3.

As for `CS(=O)(=O)O.FC(F)(F)c1cc2cc(c1)Nc1nc(nc(-c3cccc(C(F)(F)F)n3)n1)NCCCCCC2`, the Tmax – broadly, the time at which the peak concentration occurs – in data set [8] turned out to be 1.33 h. Moreover, the IC50 is 0.0785 µM in [1] and 0.0609 µM in [7]. In addition, the half-life (commonly how long it takes for the measured level to halve) in [9] is 6.63 h. Moreover, the AUC (usually the area under the concentration-time curve, a measure of exposure) in data set [10] was found to be 1.3725 µg·h/mL. The AUC(0-t) (usually the area under the concentration-time curve up to a stated or last time point) at 24 h in data set [11] worked out at 1.37 µg·h/mL; in data set [19], 2.7 µg·h/mL. The Cmax (usually the highest concentration seen after dosing) in data set [12] came to 1.25513 µg/mL; in data set [15] it was 0.237 µg/mL. This compound came in with a t1/2 in data set [13] of 0.22 h. Also, the bioavailability (usually dose-corrected exposure relative to a reference, in per cent) in [14] worked out at 19.8%. Moreover, the MRT last (as a rule, the average time that molecules of a dose stay in the body) at 24 h in data set [16] came out at 6.03 h. In addition, in data set [17], the “MRT(t)” value turned out to be 2.4 h. For the same compound, the AUC(0-inf) – broadly, total exposure, with the tail of the curve extrapolated – in data set [18] was 2.75 µg·h/mL.

Turning to `FC(F)(F)c1cc2cc(c1)Nc1nc(nc(-c3cccc(C(F)(F)F)n3)n1)NCCCCCC2`, in data set [6], the Ratio IC50 came out at 6.
